Consider one substance from patent US20240270811A1, “Glycosylated Neuropeptide Derivative, Pharmaceutical Composition, Intranasal/Nasal Drop Formulation, and Use of Pharmaceutical Composition” (Tokyo University of Science Foundation, priority 2021, published 2024).

The series is described as follows: Brain distribution by immunostaining and fluorescence quantification (Example 7). The class given is in vivo. As to conditions: 3.0 nmol/mouse intranasal. How it is done: Mice were intranasally administered with 16% DMSO or GLP-2 derivatives (3.0 nmol/mouse), and the brain was isolated 5 minutes, 10 minutes, 20 minutes and 60 minutes after the administration.
The brain isolated 5 minutes or 10 minutes after the intranasal administration was subjected to infiltration fixation with 4% PFA at 4° C. overnight without performing perfusion fixation. The isolation of the brain 20 minutes or 60 minutes after the intranasal administration was performed by the following process.
The mouse was fixed in a supine position under anesthesia with isoflurane, and the chest was incised. PBS and 4% PFA were perfused, in this order, from the left chamber of the heart throughout the whole body for fixing the tissue. The isolated brain was preserved in a 4% PFA solution. On the day following the isolation, the brain samples were substituted with 20% sucrose overnight (4° C.), and further with 30% sucrose overnight (4° C.). Thereafter, a frozen section with a thickness of 30 μm was prepared using a cryostat (CM3050S; Leica Microsystems).
Sections of the olfactory bulb (OB) including olfactory nerves, pons/principal sensory nucleus of trigeminal nerve (Pr5), hippocampus (HIP) and dorsomedial nucleus of the hypothalamus (DMH) were prepared by referring to Nissil staining images and the brain map (Paxinos and Franklin, 2003).
The frozen brain section was mounted on a slide glass, and a circle was drawn around the section with a liquid blocker. A blocking buffer was added inside the circle and the section was subjected to blocking for 30 minutes at room temperature. Thereafter, the section was added with a first antibody solution including a GLP-2 polyclonal antibody, diluted 200 times with a blocking solution, and subjected to incubation for 1 hour at room temperature. After washing three times with 1×PBS, the section was added with a second antibody solution including Alexa Fluor (trademark) 568 Goat Anti-Mouse IgG H&L, diluted 500 times with a BSA/PBS solution, and subjected to incubation for 1 hour at room temperature. After washing three times with 1×PBS, the section was mounted with ProLong (trademark) Diamond Antifade Mountant. After confirming the solidification of the mountant, the section was subjected to fluorescent observation and imaging with a confocal laser microscope (TCS SP8; Leica) and a software (Leica Application Suite X Software; Leica). Further, the fluorescent intensity in the image was calculated using the software and an average florescent intensity of each group was quantified.
The mice were intranasally administered with a PAS-CPP-GLP-2 (no sugar) or a PAS-CPP-GLP-2 (11-sugar).

Where no end group is shown, it is not given here. The star is where a group is joined. X1 = CC(=O)N[C@@H]1[C@@H](O)[C@H](O[C@@H]2O[C@H](CO)[C@@H](O[C@@H]3O[C@H](CO[C@H]4O[C@H](CO)[C@@H](O)[C@H](O)[C@@H]4O[C@@H]4O[C@H](CO)[C@@H](O[C@@H]5O[C@H](CO[C@]6(C(=O)O)C[C@H](O)[C@@H](NC(C)=O)[C@H]([C@H](O)[C@H](O)CO)O6)[C@H](O)[C@H](O)[C@H]5O)[C@H](O)[C@H]4NC(C)=O)[C@@H](O)[C@H](O[C@H]4O[C@H](CO)[C@@H](O)[C@H](O)[C@@H]4O[C@@H]4O[C@H](CO)[C@@H](O[C@@H]5O[C@H](CO[C@]6(C(=O)O)C[C@H](O)[C@@H](NC(C)=O)[C@H]([C@H](O)[C@H](O)CO)O6)[C@H](O)[C@H](O)[C@H]5O)[C@H](O)[C@H]4NC(C)=O)[C@@H]3O)[C@H](O)[C@H]2NC(C)=O)[C@@H](CO)O[C@H]1NC(=O)C*

On to “FFLIPKGRRRRRRRRGGHADGSFSDEMNTILDNLAARDFINWLIQTKITDC(X1)-OH [PAS-CPP-GLP-2 (11-sugar)]”, for which, for the setting “5 minutes”, the “fluorescence at OB and Pr5” value is “a significant degree of fluorescence was observed”. Moreover, under “20 minutes”, the “fluorescence at HIP and DMH” value was “intense fluorescence was observed”; the “fluorescence intensity at OB or Pr5 compared with 5 minutes” value is given as “weaker than the fluorescence observed 5 minutes after the administration”. Besides, under “60 minutes”, the “fluorescence at HIP and DMH” value was “a significant degree of fluorescence was observed”; the “fluorescence at OB and Pr5” value is recorded as “a significant degree of fluorescence was observed”; the “fluorescence intensity at OB and Pr5 compared with 5 minutes” value is listed as “weaker than the fluorescence observed 5 minutes after the administration”.
